US20150010928A1, “MEANS AND METHODS FOR ASSESSING AN ENDOCRINE DISEASE OR DISORDER” (priority 2012, published 2015)
Marks after values point to notes of the source that are not given here.

Tested on: male rats
Test: Plasma metabolite profiling (GC-MS, LC-MS, SPE-LC-MS) in male rats dosed once daily over 28 days (OECD 407)
Format: in vivo, rat
Parameters: key to erythro-Sphingoside (d18:1) / Tricosanoic acid (C23:0) / beta-Sitosterol / Tryptophan: ratio of treated group mean to untreated control group mean
Settings: for Glucose, ratio versus control / Lysophosphatidylcholine (C20:4), ratio versus control / Threonic acid, ratio versus control / Alanine, ratio versus control / Androstenedione, ratio versus control / Cholesterol, ratio versus control / Glycine, ratio versus control / Heptadecanoic acid (C17:0), ratio versus control / Testosterone, ratio versus control / Threonine, ratio versus control / Uric acid, ratio versus control / alpha-Tocopherol, ratio versus control: male rats, plasma; for Glucose, ratio versus control / Lysophosphatidylcholine (C20:4), ratio versus control / Threonic acid, ratio versus control: low dose; for Alanine, ratio versus control / Androstenedione, ratio versus control / Cholesterol, ratio versus control / Glycine, ratio versus control / Heptadecanoic acid (C17:0), ratio versus control / Testosterone, ratio versus control / Threonine, ratio versus control / Uric acid, ratio versus control / alpha-Tocopherol, ratio versus control / 3-O-Methylsphingosine (d18:1) / 5-O-Methylsphingosine (d18:1) / Cysteine / Lignoceric acid (C24:0) / Nervonic acid (C24:cis[15]1) / Oleic acid (C18:cis[9]1) / Stearic acid (C18:0) / alpha-Tocopherol / erythro-Sphingoside (d18:1) / threo-Sphingosine (d18:1) / Phosphatidylcholine (C16:0, C16:0) / Thyroxine (T4) / trans-4-Hydroxyproline: high dose
Outline: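 Metabolites were measured by GC-MS (derivatised) and reversed-phase LC-MS, with steroids by online SPE-LC-MS, in plasma drawn from fasted rats on days 7, 14 and 28 of once-daily dosing (5/sex/group). Values are ratios versus sex-matched untreated controls, normalized to pool samples, with Welch-test p-values.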

`C[C@]12CCC(=O)C(O)=C1CC[C@@H]1[C@@H]2CC[C@]2(C)C(=O)CC[C@@H]12` [Formestane] was tested, and the “Glucose, ratio versus control” value (day 7) was 0.8 *, the “Lysophosphatidylcholine (C20:4), ratio versus control” value (day 7) was 0.99 * and the “Threonic acid, ratio versus control” value (day 7) was 1.27 *. For the same molecule, the “Glucose, ratio versus control” value (day 14) was 0.89 *, the “Lysophosphatidylcholine (C20:4), ratio versus control” value (day 14) was 0.97 * and the “Threonic acid, ratio versus control” value (day 14) was 1.24 *. For the same molecule, the “Glucose, ratio versus control” value (day 28) was 0.9 *, the “Lysophosphatidylcholine (C20:4), ratio versus control” value (day 28) was 0.96 * and the “Threonic acid, ratio versus control” value (day 28) was 1.44 *.
In the case of `O=P1(NCCCl)OCCCN1CCCl` (stereo not shown) [Ifosfamide], the “Alanine, ratio versus control” value (day 7) is reported as 1.07, the “Androstenedione, ratio versus control” value (day 7) is reported as 3.68 and the “Cholesterol, ratio versus control” value (day 7) is reported as 1.12. For the same molecule, the “Glycine, ratio versus control” value (day 7) was 1.33, the “Heptadecanoic acid (C17:0), ratio versus control” value (day 7) was 0.94 and the “Testosterone, ratio versus control” value (day 7) was 2.35. For the same molecule, the “Threonine, ratio versus control” value (day 7) was 1.21, the “Uric acid, ratio versus control” value (day 7) was 0.57 and the “alpha-Tocopherol, ratio versus control” value (day 7) was 0.99. For the same molecule, the “Androstenedione, ratio versus control” value (day 14) was 0.21 *, the “Testosterone, ratio versus control” value (day 14) was 0.21 * and the “Alanine, ratio versus control” value (day 28) was 0.76. The “Androstenedione, ratio versus control” value (day 28) was 0.24 *, the “Cholesterol, ratio versus control” value (day 28) was 1.13 and the “Glycine, ratio versus control” value (day 28) was 1.28. The “Heptadecanoic acid (C17:0), ratio versus control” value (day 28) was 1.08, the “Testosterone, ratio versus control” value (day 28) was 0.22 * and the “Threonine, ratio versus control” value (day 28) was 0.88. For the same molecule, the “Uric acid, ratio versus control” value (day 28) was 0.65 and the “alpha-Tocopherol, ratio versus control” value (day 28) was 0.95.
In the case of `CC(=O)O[C@]1(C(C)=O)CC[C@H]2[C@@H]3C[C@H](C)C4=CC(=O)CC[C@]4(C)[C@H]3CC[C@@]21C` [Medroxyprogesterone acetat], the “Alanine, ratio versus control” value (day 7) is reported as 0.73 *, the “Androstenedione, ratio versus control” value (day 7) is reported as 1.68 and the “Cholesterol, ratio versus control” value (day 7) is reported as 0.9. The “Glycine, ratio versus control” value (day 7) was 1.05 *, the “Heptadecanoic acid (C17:0), ratio versus control” value (day 7) was 0.98 and the “Testosterone, ratio versus control” value (day 7) was 2. For the same molecule, the “Threonine, ratio versus control” value (day 7) was 0.82 *, the “Uric acid, ratio versus control” value (day 7) was 0.6 * and the “alpha-Tocopherol, ratio versus control” value (day 7) was 0.82 *. For the same molecule, the “Alanine, ratio versus control” value (day 14) was 0.97, the “Androstenedione, ratio versus control” value (day 14) was 0.28 * and the “Cholesterol, ratio versus control” value (day 14) was 0.69 *. For the same molecule, the “Glycine, ratio versus control” value (day 14) was 1.06, the “Heptadecanoic acid (C17:0), ratio versus control” value (day 14) was 0.92 and the “Testosterone, ratio versus control” value (day 14) was 0.22 *. The “Threonine, ratio versus control” value (day 14) was 1, the “Uric acid, ratio versus control” value (day 14) was 1.07 and the “alpha-Tocopherol, ratio versus control” value (day 14) was 0.82 *. The “Androstenedione, ratio versus control” value (day 28) was 0.1 * and the “Testosterone, ratio versus control” value (day 28) was 0.08 *.
For `Cc1cccc(C)c1N(Cn1cccn1)C(=O)CCl` [Metazachlor], the “3-O-Methylsphingosine (d18:1)” value (m7, Table 10a) was 2.88 *, the “5-O-Methylsphingosine (d18:1)” value (m7, Table 10a) was 3.04 * and the Cysteine (m7, Table 10a) was 1.07^. For the same molecule, the “Lignoceric acid (C24:0)” value (m7, Table 10a) was 1.6 *, the “Nervonic acid (C24:cis[15]1)” value (m7, Table 10a) was 3.17 * and the “Oleic acid (C18:cis[9]1)” value (m7, Table 10a) was 1.09^. The “Stearic acid (C18:0)” value (m7, Table 10a) was 1.45 *, the alpha-Tocopherol (m7, Table 10a) was 1.71 * and the “erythro-Sphingoside (d18:1)” value (m7, Table 10a) was 2.3 *. For the same molecule, the “threo-Sphingosine (d18:1)” value (m7, Table 10a) was 2.18 *, the “Oleic acid (C18:cis[9]1)” value (m7, Table 10b) was 1.09 and the “Phosphatidylcholine (C16:0, C16:0)” value (m7, Table 10b) was 0.98. For the same molecule, the “Thyroxine (T4)” value (m7, Table 10b) was 0.98, the trans-4-Hydroxyproline (m7, Table 10b) was 0.93 and the “3-O-Methylsphingosine (d18:1)” value (m14, Table 10a) was 4.31 *. The “5-O-Methylsphingosine (d18:1)” value (m14, Table 10a) was 4.66 *, the Cysteine (m14, Table 10a) was 0.86 and the “Lignoceric acid (C24:0)” value (m14, Table 10a) was 2.38 *. For the same molecule, the “Nervonic acid (C24:cis[15]1)” value (m14, Table 10a) was 4 *, the “Oleic acid (C18:cis[9]1)” value (m14, Table 10a) was 1.82 * and the “Stearic acid (C18:0)” value (m14, Table 10a) was 2.36 *. For the same molecule, the alpha-Tocopherol (m14, Table 10a) was 2.2 *, the “erythro-Sphingoside (d18:1)” value (m14, Table 10a) was 3.47 * and the “threo-Sphingosine (d18:1)” value (m14, Table 10a) was 3.13 *. For the same molecule, the “Oleic acid (C18:cis[9]1)” value (m14, Table 10b) was 1.82^, the “Phosphatidylcholine (C16:0, C16:0)” value (m14, Table 10b) was 0.83 * and the “Thyroxine (T4)” value (m14, Table 10b) was 0.56 *. For the same molecule, the trans-4-Hydroxyproline (m14, Table 10b) was 0.72 *, the “3-O-Methylsphingosine (d18:1)” value (m28, Table 10a) was 4.4 * and the “5-O-Methylsphingosine (d18:1)” value (m28, Table 10a) was 4.51 *. For the same molecule, the Cysteine (m28, Table 10a) was 1.41 *, the “Lignoceric acid (C24:0)” value (m28, Table 10a) was 2.11 * and the “Nervonic acid (C24:cis[15]1)” value (m28, Table 10a) was 3.63 *. For the same molecule, the “Oleic acid (C18:cis[9]1)” value (m28, Table 10a) was 1.82 *, the “Stearic acid (C18:0)” value (m28, Table 10a) was 2.59 * and the alpha-Tocopherol (m28, Table 10a) was 2.11 *. For the same molecule, the “erythro-Sphingoside (d18:1)” value (m28, Table 10a) was 3.68 *, the “threo-Sphingosine (d18:1)” value (m28, Table 10a) was 3.33 * and the “Oleic acid (C18:cis[9]1)” value (m28, Table 10b) was 1.82^. For the same molecule, the “Phosphatidylcholine (C16:0, C16:0)” value (m28, Table 10b) was 0.79 *, the “Thyroxine (T4)” value (m28, Table 10b) was 0.74^ and the trans-4-Hydroxyproline (m28, Table 10b) was 0.84 *.
